The target of test [1] is Somatostatin receptor type 1 (Homo sapiens, UniProt P30872). Put plainly: Inhibition of [Leu8,D-Trp22,125I-Tyr25]SRIF-28 binding to human somatostatin receptor type 1.
In test [2] the target is Somatostatin receptor type 5 (Homo sapiens, UniProt P35346). Description: Inhibition of [Leu8,D-Trp22,125I-Tyr25]SRIF-28 binding to human somatostatin receptor type 5.
Test [3] has as its target Somatostatin receptor type 2 (Homo sapiens, UniProt P30874). Description: Inhibition of [Leu8,D-Trp22,125I-Tyr25]SRIF-28 binding to human somatostatin receptor type 2.
For test [4], the target named is Somatostatin receptor type 3 (Homo sapiens, UniProt P32745). Description: Inhibition of [Leu8,D-Trp22,125I-Tyr25]SRIF-28 binding to human somatostatin receptor type 3.
Chain of Somatostatin receptor type 3 (P32745 whole entry): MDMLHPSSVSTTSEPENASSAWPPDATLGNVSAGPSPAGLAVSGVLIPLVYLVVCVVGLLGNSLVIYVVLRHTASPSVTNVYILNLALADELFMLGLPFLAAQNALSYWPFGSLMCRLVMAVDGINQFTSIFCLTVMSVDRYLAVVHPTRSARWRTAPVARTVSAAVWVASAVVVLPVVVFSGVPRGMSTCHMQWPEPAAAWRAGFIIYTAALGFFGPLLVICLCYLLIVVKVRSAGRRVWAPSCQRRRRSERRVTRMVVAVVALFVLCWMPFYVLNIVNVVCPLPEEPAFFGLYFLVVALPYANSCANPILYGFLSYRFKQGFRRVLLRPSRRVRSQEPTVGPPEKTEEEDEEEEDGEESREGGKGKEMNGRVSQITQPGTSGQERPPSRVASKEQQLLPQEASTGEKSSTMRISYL
Test [5] addresses Somatostatin receptor type 4 (Homo sapiens, UniProt P31391). Put plainly: Inhibition of [Leu8,D-Trp22,125I-Tyr25]SRIF-28 binding to human somatostatin receptor type 4.

The values that follow come from ChEMBL document CHEMBL1145176, “Somatostatin receptor 1 selective analogues: 2. N(alpha)-Methylated scan” (J Med Chem, 2005).

Positions of bridges follow the written chain, without caps; N, C: chain ends. Non-standard residues stand in square brackets, D forms with d. Residues, ends and D or L forms follow the SMILES beside them. NMePhe(4-CH2NHiPr) = CN[C@@H](Cc1ccc(CNC(C)C)cc1)C(=O)O; Phe(4-CH2NHiPr) = CC(C)NCc1ccc(C[C@H](N)C(=O)O)cc1; d2Nal = N[C@H](Cc1ccc2ccccc2c1)C(=O)O; NMeS = CN[C@@H](CO)C(=O)O

Broadly, the IC50 is the concentration that gives 50% inhibition. A low value points to inhibition by little substance.

Chain of Somatostatin receptor type 2 (P30874 whole entry): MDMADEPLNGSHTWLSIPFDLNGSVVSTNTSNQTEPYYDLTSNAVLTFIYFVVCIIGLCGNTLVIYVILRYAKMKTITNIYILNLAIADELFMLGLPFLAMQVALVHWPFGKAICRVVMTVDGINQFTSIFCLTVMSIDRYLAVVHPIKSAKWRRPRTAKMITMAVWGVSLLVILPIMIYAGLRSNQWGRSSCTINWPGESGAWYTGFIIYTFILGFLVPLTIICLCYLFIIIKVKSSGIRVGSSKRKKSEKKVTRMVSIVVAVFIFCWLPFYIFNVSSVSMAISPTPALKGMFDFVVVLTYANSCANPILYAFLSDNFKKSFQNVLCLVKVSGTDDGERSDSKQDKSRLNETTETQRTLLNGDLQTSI
Chain of Somatostatin receptor type 1 (P30872 whole entry): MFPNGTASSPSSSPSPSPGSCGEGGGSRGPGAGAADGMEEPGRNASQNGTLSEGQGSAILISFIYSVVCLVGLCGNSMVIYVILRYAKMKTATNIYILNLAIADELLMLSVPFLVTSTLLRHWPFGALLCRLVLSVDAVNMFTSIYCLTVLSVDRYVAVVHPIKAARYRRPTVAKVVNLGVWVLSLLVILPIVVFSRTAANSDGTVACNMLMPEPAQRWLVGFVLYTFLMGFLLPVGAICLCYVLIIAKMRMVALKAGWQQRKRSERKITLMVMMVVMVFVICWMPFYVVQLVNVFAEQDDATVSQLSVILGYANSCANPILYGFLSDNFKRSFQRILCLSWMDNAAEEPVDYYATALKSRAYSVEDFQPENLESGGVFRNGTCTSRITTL
Chain of Somatostatin receptor type 4 (P31391 whole entry): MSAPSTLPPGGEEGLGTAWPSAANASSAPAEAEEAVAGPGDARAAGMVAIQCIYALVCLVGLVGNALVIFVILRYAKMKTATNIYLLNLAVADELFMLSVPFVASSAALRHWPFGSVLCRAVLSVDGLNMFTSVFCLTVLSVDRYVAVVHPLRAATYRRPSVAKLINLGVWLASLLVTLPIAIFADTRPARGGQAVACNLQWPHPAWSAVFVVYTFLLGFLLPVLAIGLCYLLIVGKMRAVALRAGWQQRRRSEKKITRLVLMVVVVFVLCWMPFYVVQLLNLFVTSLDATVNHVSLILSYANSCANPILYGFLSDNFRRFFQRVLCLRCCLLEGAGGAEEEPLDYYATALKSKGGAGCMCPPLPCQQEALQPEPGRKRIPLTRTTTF
Chain of Somatostatin receptor type 5 (P35346 whole entry): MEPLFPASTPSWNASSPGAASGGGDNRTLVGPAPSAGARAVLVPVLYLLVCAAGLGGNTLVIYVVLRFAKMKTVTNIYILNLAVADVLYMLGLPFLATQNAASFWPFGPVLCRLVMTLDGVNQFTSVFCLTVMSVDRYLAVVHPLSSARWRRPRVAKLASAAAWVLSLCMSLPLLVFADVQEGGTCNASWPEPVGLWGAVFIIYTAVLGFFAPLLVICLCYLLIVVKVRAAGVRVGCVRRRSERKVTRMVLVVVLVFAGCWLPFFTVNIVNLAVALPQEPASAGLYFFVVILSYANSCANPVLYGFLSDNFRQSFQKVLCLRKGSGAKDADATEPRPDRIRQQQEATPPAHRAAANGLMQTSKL

Consider `CC(C)NCc1ccc(C[C@H]2C(=O)N[C@@H]([C@@H](C)O)C(=O)N[C@@H](Cc3ccccc3)C(=O)N[C@@H]([C@@H](C)O)C(=O)N[C@@H](CO)C(=O)N[C@H](C(=O)O)CSSC[C@H](N)C(=O)N[C@@H](CCCCN)C(=O)N[C@@H](Cc3ccccc3)C(=O)N[C@@H](Cc3ccccc3)C(=O)N[C@H](Cc3ccc4ccccc4c3)C(=O)N2C)cc1` (H-CKFF[d2Nal][NMePhe(4-CH2NHiPr)]TFTSC-OH; disulfide 1-11), for which the IC50 in test [1] is 69 nM; in test [2], greater than 1000 nM.

Turning to `CC(C)NCc1ccc(C[C@@H]2NC(=O)[C@H](Cc3c[nH]c4ccccc34)NC(=O)[C@H](Cc3ccccc3)NC(=O)[C@H](Cc3ccccc3)NC(=O)[C@H](CCCCN)NC(=O)[C@@H](N)CSSC[C@@H](C(=O)O)NC(=O)[C@H](CO)NC(=O)[C@H]([C@@H](C)O)NC(=O)[C@H](Cc3ccc(O)cc3)NC(=O)[C@H]([C@@H](C)O)NC2=O)cc1` (H-CKFFW[Phe(4-CH2NHiPr)]TYTSC-OH; disulfide 1-11), the IC50 in test [3] is greater than 1000 nM; in test [1], 15 nM; in test [2], greater than 1000 nM; in test [4] it was greater than 1000 nM; in test [5], 384 nM.

Turning to `CC(C)NCc1ccc(C[C@@H]2NC(=O)[C@@H](Cc3ccc4ccccc4c3)NC(=O)[C@H](Cc3ccccc3)NC(=O)[C@H](Cc3ccccc3)NC(=O)[C@H](CCCCN)NC(=O)[C@@H](N)CSSC[C@@H](C(=O)N[C@@H](CCCCN)C(=O)O)N(C)C(=O)[C@H](CO)NC(=O)[C@H]([C@@H](C)O)NC(=O)[C@H](Cc3ccccc3)NC(=O)[C@H]([C@@H](C)O)NC2=O)cc1`, the concentration for half-maximal inhibition (IC50) in test [3] is greater than 1000 nM; in test [1], 255 nM; in test [2], greater than 1000 nM; in test [4] it was greater than 1000 nM; in test [5], greater than 1000 nM.

For `CC(C)NCc1ccc(C[C@@H]2NC(=O)[C@@H](Cc3ccc4ccccc4c3)NC(=O)[C@H](Cc3ccccc3)NC(=O)[C@H](Cc3ccccc3)NC(=O)[C@H](CCCCN)NC(=O)[C@@H](N)CSSC[C@@H](C(=O)O)NC(=O)[C@H](CO)NC(=O)[C@H]([C@@H](C)O)NC(=O)[C@H](Cc3ccccc3)NC(=O)[C@H]([C@@H](C)O)N(C)C2=O)cc1`, the IC50 in test [3], in test [1], in test [2], in test [4] and in test [5] was greater than 1000 nM each time.

`CC(C)NCc1ccc(C[C@@H]2NC(=O)[C@@H](Cc3ccc4ccccc4c3)N(C)C(=O)[C@H](Cc3ccccc3)NC(=O)[C@H](Cc3ccccc3)NC(=O)[C@H](CCCCN)NC(=O)[C@@H](N)CSSC[C@@H](C(=O)O)NC(=O)[C@H](CO)NC(=O)[C@H]([C@@H](C)O)NC(=O)[C@H](Cc3ccccc3)NC(=O)[C@H]([C@@H](C)O)NC2=O)cc1`: the IC50 is greater than 1000 nM in test [3]; 325 nM in test [1]; greater than 1000 nM in test [2]; greater than 1000 nM in test [4]; greater than 1000 nM in test [5].

The molecule `CC(C)NCc1ccc(C[C@@H]2NC(=O)[C@@H](Cc3c[nH]c4ccccc34)NC(=O)[C@H](Cc3ccccc3)NC(=O)[C@H](Cc3ccccc3)NC(=O)[C@H](CCCCN)NC(=O)[C@@H](N)CSSC[C@@H](C(=O)O)NC(=O)[C@H](CO)NC(=O)[C@H]([C@@H](C)O)NC(=O)[C@H](Cc3ccccc3)NC(=O)[C@H]([C@@H](C)O)NC2=O)cc1` (H-CKFF[dW][Phe(4-CH2NHiPr)]TFTSC-OH; disulfide 1-11) came in with an IC50 in test [1] of 33 nM.

For `CC(C)NCc1ccc(C[C@H]2C(=O)N[C@@H]([C@@H](C)O)C(=O)N[C@@H](Cc3ccccc3)C(=O)N[C@@H]([C@@H](C)O)C(=O)N[C@@H](CO)C(=O)N[C@H](C(=O)O)CSSC[C@H](N)C(=O)N[C@@H](CCCCN)C(=O)N[C@@H](Cc3ccccc3)C(=O)N[C@@H](Cc3ccccc3)C(=O)N[C@H](Cc3c[nH]c4ccccc34)C(=O)N2C)cc1` (H-CKFF[dW][NMePhe(4-CH2NHiPr)]TFTSC-OH; disulfide 1-11), the IC50 in test [3] was greater than 1000 nM; in test [1] it was 10 nM; in test [2], greater than 1000 nM; in test [4], 1030 nM; in test [5], 226 nM.

Consider `CC(C)NCc1ccc(C[C@@H]2NC(=O)[C@@H](N(C)C(=O)c3ccc4ccccc4c3)NC(=O)[C@H](Cc3ccccc3)NC(=O)[C@H](Cc3ccccc3)NC(=O)[C@H](CCCCN)NC(=O)[C@@H](N)CSSC[C@@H](C(=O)O)NC(=O)[C@H](CO)NC(=O)[C@H]([C@@H](C)O)NC(=O)[C@H](Cc3ccc(O)cc3)NC(=O)[C@H]([C@@H](C)O)NC2=O)cc1`, for which the IC50 in test [1] was greater than 1000 nM; in test [4] it was 900 nM; in test [5], greater than 1000 nM.

For `CN[C@H]1CSSC[C@@H](C(=O)O)NC(=O)[C@H](CO)NC(=O)[C@H]([C@@H](C)O)NC(=O)[C@H](Cc2ccccc2)NC(=O)[C@H]([C@@H](C)O)NC(=O)[C@H](Cc2ccc(CNC(C)C)cc2)NC(=O)[C@@H](Cc2c[nH]c3ccccc23)NC(=O)[C@H](Cc2ccccc2)NC(=O)[C@H](Cc2ccccc2)NC(=O)[C@H](CCCCN)NC1=O`, the IC50 in test [3] was greater than 1000 nM; in test [1], 14 nM; in test [2] it was greater than 1000 nM; in test [4], greater than 1000 nM; in test [5] it was greater than 1000 nM.

Regarding `CC(C)NCc1ccc(C[C@@H]2NC(=O)[C@@H](Cc3ccc4ccccc4c3)NC(=O)[C@H](Cc3ccccc3)NC(=O)[C@H](Cc3ccccc3)NC(=O)[C@H](CCCCN)NC(=O)[C@@H](N)CSSC[C@@H](C(=O)O)N(C)C(=O)[C@H](CO)NC(=O)[C@H]([C@@H](C)O)NC(=O)[C@H](Cc3ccccc3)NC(=O)[C@H]([C@@H](C)O)NC2=O)cc1`, the IC50 is greater than 1000 nM in test [3]; 260 nM in test [1]; greater than 1000 nM in test [2]; greater than 1000 nM in test [4]; greater than 1000 nM in test [5].

As to `CC(C)NCc1ccc(C[C@@H]2NC(=O)[C@@H](Cc3c[nH]c4ccccc34)NC(=O)[C@H](Cc3ccccc3)NC(=O)[C@H](Cc3ccccc3)NC(=O)[C@H](CCCCN)NC(=O)[C@@H](N)CSSC[C@@H](C(=O)N[C@@H](CCCCN)C(=O)N[C@@H](CCCCN)C(=O)N[C@@H](CCCCN)C(=O)O)N(C)C(=O)[C@H](CO)NC(=O)[C@H]([C@@H](C)O)NC(=O)[C@H](Cc3ccccc3)NC(=O)[C@H]([C@@H](C)O)NC2=O)cc1`, the IC50 in test [3] was greater than 1000 nM; in test [1], 30 nM; in test [2] it was 803 nM; in test [4], greater than 1000 nM; in test [5], greater than 1000 nM.

On to `CC(C)NCc1ccc(C[C@@H]2NC(=O)[C@@H](Cc3c[nH]c4ccccc34)NC(=O)[C@H](Cc3ccccc3)NC(=O)[C@H](Cc3ccccc3)NC(=O)[C@H](CCCCN)NC(=O)[C@@H](N)CSSC[C@@H](C(=O)O)NC(=O)[C@H](CO)N(C)C(=O)[C@H]([C@@H](C)O)NC(=O)[C@H](Cc3ccccc3)NC(=O)[C@H]([C@@H](C)O)NC2=O)cc1` (H-CKFF[dW][Phe(4-CH2NHiPr)]TFT[NMeS]C-OH; disulfide 1-11), for which the IC50 in test [3] is greater than 1000 nM; in test [1], 23 nM; in test [4] it was greater than 1000 nM.

As to `C[C@H](N)C(=O)NCC(=O)N[C@H]1CSSC[C@@H](C(=O)O)NC(=O)[C@H](CO)NC(=O)[C@H]([C@@H](C)O)NC(=O)[C@H](Cc2ccccc2)NC(=O)[C@H]([C@@H](C)O)NC(=O)[C@H](CCCCN)NC(=O)[C@@H](Cc2c[nH]c3ccccc23)NC(=O)[C@H](Cc2ccccc2)NC(=O)[C@H](Cc2ccccc2)NC(=O)[C@H](CCCCN)NC1=O` (H-AGCKFF[dW]KTFTSC-OH; disulfide 3-13), in test [1], the IC50 worked out at 0.98 nM.

For the molecule `CC(C)NCc1ccc(C[C@H]2C(=O)N[C@@H]([C@@H](C)O)C(=O)N[C@@H](Cc3ccccc3)C(=O)N[C@@H]([C@@H](C)O)C(=O)N[C@@H](CO)C(=O)N[C@H](C(=O)O)CSSC[C@H](NC(=O)[C@@H](N)Cc3ccc(O)cc3)C(=O)N[C@@H](CCCCN)C(=O)N[C@@H](Cc3ccccc3)C(=O)N[C@@H](Cc3ccccc3)C(=O)N[C@H](Cc3c[nH]c4ccccc34)C(=O)N2C)cc1` (H-YCKFF[dW][NMePhe(4-CH2NHiPr)]TFTSC-OH; disulfide 2-12), the values for the IC50 in test [3], in test [1] and in test [5] were greater than 1000 nM, 16 nM and 245 nM, respectively.

On to `CC(C)NCc1ccc(C[C@H]2C(=O)N[C@@H]([C@@H](C)O)C(=O)N[C@@H](Cc3ccc(O)cc3)C(=O)N[C@@H]([C@@H](C)O)C(=O)N[C@@H](CO)C(=O)N[C@H](C(=O)O)CSSC[C@H](N)C(=O)N[C@@H](CCCCN)C(=O)N[C@@H](Cc3ccccc3)C(=O)N[C@@H](Cc3ccccc3)C(=O)N[C@H](Cc3ccc4ccccc4c3)C(=O)N2C)cc1` (H-CKFF[d2Nal][NMePhe(4-CH2NHiPr)]TYTSC-OH; disulfide 1-11), for which the IC50 in test [3] was greater than 1000 nM; in test [1] it was 25 nM; in test [2], greater than 1000 nM.

Regarding `CC(C)NCc1ccc(C[C@H]2C(=O)N[C@@H]([C@@H](C)O)C(=O)N[C@@H](Cc3ccc(O)cc3)C(=O)N[C@@H]([C@@H](C)O)C(=O)N[C@@H](CO)C(=O)N[C@H](C(=O)O)CSSC[C@H](N)C(=O)N[C@@H](CCCCN)C(=O)N[C@@H](Cc3ccccc3)C(=O)N[C@@H](Cc3ccccc3)C(=O)N[C@H](Cc3c[nH]c4ccccc34)C(=O)N2C)cc1` (H-CKFF[dW][NMePhe(4-CH2NHiPr)]TYTSC-OH; disulfide 1-11), the IC50 in test [3] and in test [2] was greater than 1000 nM in each case.

In the case of `CC(C)NCc1ccc(C[C@@H]2NC(=O)[C@@H](Cc3ccc4ccccc4c3)NC(=O)[C@H](Cc3ccccc3)NC(=O)[C@H](Cc3ccccc3)NC(=O)[C@H](CCCCN)NC(=O)[C@@H](N)CSSC[C@@H](C(=O)O)NC(=O)[C@H](CO)NC(=O)[C@H]([C@@H](C)O)NC(=O)[C@H](Cc3ccccc3)NC(=O)[C@H]([C@@H](C)O)NC2=O)cc1` (H-CKFF[d2Nal][Phe(4-CH2NHiPr)]TFTSC-OH; disulfide 1-11), the IC50 in test [1] is 248 nM; in test [2], greater than 1000 nM.
